This note sets out measurements from US20220331348A1, “METHOD OF PREPARING PENTACYCLIC TRITERPENOID SAPONINS AND DRUG COMPOSITION” (CHINA PHARMACEUTICAL UNIVERSITY, priority 2019, published 2022).

Experiment [1] concerns TNBS modeled Crohn's disease model mice. In words: 2,4,6-trinitrobenzene sulfonic acid (TNBS) modeled Crohn's disease model mice. It is filed as in vivo, mouse. Particulars: for colon length of the treatment group compared with the control group / expression level of inflammatory factor IL-1β / expression level of inflammatory factor TNF-α: dose not given; for expression level of inflammatory factor IL-1β / expression level of inflammatory factor TNF-α: vs model group. The method, then:
C57BL/6 male mice with 6-8 weeks old were selected and randomly divided into a control group, a mode group, a treatment group and a positive control group. Expect for the control group, after the mice in the rest groups anesthetized with isoflurane, hoses were carefully inserted into colons of the mice from anuses, and […] of 1.5% 2,4,6-trinitrobenzene sulfonic acid (TNBS) was slowly injected. Before the hoses were pulled out, the mice were placed upside down for 1 min. First intragastric administration was conducted at the day of enema treatment, the mice in the control group and the model group were orally administered with carboxymethyl cellulose sodium as a placebo, the mice in the treatment group were orally administered with the ziyuglycoside II (purchased from Shanghai Boka Chemistry Technology Co., Ltd) (with a dosage of 5 mg/kg), and the mice in the positive drug group were orally administered with 5-aminosalicylic acid as a clinical drug (5-ASA, purchased from Shanghai Sangon Biological Engineering Co., Ltd) (with a dosage of 100 mg/kg). Administration was continuously conducted for 7 days. In the administration process, the states of the mice were observed every day, and weight changes of the mice were recorded.
Differences in weight change of the mice in various groups were compared, from which, ziyuglycoside II has the treatment effect on the 2, 4, 6-trinitrobenzene sulfonic acid (TNBS) modeled Crohn's disease model mice.
The above mice were sacrificed by cervical dislocation at day 8, colon tissues were harvested, lengths of the colon tissues were measured for statistical summary, and differences in colon length of various groups were compared, from which, the ziyuglycoside II has significant treatment effect on the Crohn's disease model mice. […] 10 mg of proximal rectum segments of the colon tissues of the above mice were selected, PBS was added for homogenization, and centrifugation was conducted for taking a supernate. The supernate was subjected to ELISA detection, and protein quantification was conducted for inflammatory factors TNF- and IL-1. […] Myeloperoxidase (MPO) is an enzyme specific to neutrophils, and the amount of the neutrophils in the intestinal tracts may be reflected by detecting the MPO level. 5 mg of proximal rectum segments of the colon tissues of the above mice were selected, PBS was added for homogenization, and the content of the MPO in a homogenate was detected with a MPO kit (purchased from Nanjing Jiancheng Bioengineering Institute). […] Therefore, the ziyuglycoside II is expected to be useful for preparing the drug for preventing or treating the inflammatory bowel diseases such as the Crohn's disease.

Experiment [2] relates to ulcerative colitis model mice induced by DSS. Description: Dextran sulphate sodium salt (DSS) induced ulcerative colitis model mice. It is filed as in vivo, mouse. Particulars: for DAI scores of the treatment group: DSS-induced mice, dose not given, vs model group. Here is the method: C57BL/6 male mice with 6-8 weeks old were selected; a control group was fed with purified water; and a model group, a treatment group and a positive control group were fed with purified water containing 2% dextran sulphate sodium salt (DSS) (36000-50000 M.Wt) for 7 days and then with the purified water for 3 days, and drug intervention was conducted at the same time. The mice in the control group and the model group were orally administered with carboxymethyl cellulose sodium as a placebo, the mice in the treatment group were orally administered with the ziyuglycoside II (purchased from Shanghai Boka Chemistry Technology Co., Ltd) (with a dosage of 5 mg/kg), and the mice in the positive control group were orally administered with 5-aminosalicylic acid as a clinical drug (5-ASA, purchased from Shanghai Sangon Biological Engineering Co., Ltd) (with a dosage of 100 mg/kg). In the administration process, weight changes, feces characters and hematochezia conditions of the mice were observed and recorded every day and were scored, and disease activity indexes were calculated (Disease activity index, DAI).
A scoring rule and a calculation method were as follows: DAT=(weight score+diarrhea score+occult blood score)/3, wherein weight score: 0 (weight gained or unchanged), 1 (weight lost by 1-5%), 2 (weight lost by 6-10%), 3 (weight lost by 11-15%), 4 (weight lost by 15% or above); diarrhea score: 0 (normal feces), 2 (soft feces), 4 (feces sticking anuses or diarrhea); and occult blood score: 0 (negative occult blood), 2 (positive occult blood), and 4 (visible bleeding). Comparing differences in DAI of various groups, it can be known that the ziyuglycoside II has significant prevention and treatment effects on ulcerative colitis of the mice modeled by the dextran sulphate sodium salt (DSS).
The above mice were sacrificed by cervical dislocation at day 11, colon tissues were harvested, lengths of the colon tissues were measured for statistical summary, and differences in colon length of various groups were compared, from which, the ziyuglycoside II has significant prevention and treatment effect on the ulcerative colitis model mice.
Middle segments, with lengths of about 1 cm, of the colon tissues of the above mice were selected, soaked in a formalin solution for fixing overnight, embedded with paraffin and sliced, and the slices were subjected to HE staining. […] Particularly, compared with the positive drug group, the ziyuglycoside II has the advantage of maintaining a thickness of a muscular layer.
10 mg of proximal rectum segments of the colon tissues of the above mice were selected, PBS was added for homogenization, and centrifugation was conducted for taking a supernate. The supernate was subjected to ELISA detection, and protein quantification was conducted for inflammatory factors TNF-α and IL-lb.
10 mg of colon tissues of the above mice were selected for detection of ROS therein.
When the ulcerative colitis occurs, the inflammatory factors may destruct tight junction between intestinal tracts, and destruction of the tight junction enables functions of mucosal barriers to be lost and accelerates development of the diseases. 5 mg of colon tissues of the above mice were selected for qPCR analysis. […] This hints that the ziyuglycoside II further has the efficacy of increasing the expression level of the tight junction and then protecting a structure of each colon. […] Therefore, the ziyuglycoside II is expected to be useful for preparing the drug for preventing or treating the inflammatory bowel diseases such as the ulcerative colitis.

The subject of experiment [3] is human ADPKD cyst lining epithelial cell lines WT9-12. Description: Proliferation of polycystic kidney epithelial cells (CCK-8 method). It is filed as cell-based. Particulars: Homo sapiens, Epithelial cell, 48 h. An excerpt: Cell and reagent: complete media for human ADPKD cyst lining epithelial cell lines WT9-12 and DMEM were purchased from ATCC Company; fetal calf serums were purchased from Gibco Company; Cell Counting Kit-8 was purchased from DOJINDO Company; Click-iT® EdU Imaging Kits were purchased from Invitrogen™ Thermo Fisher Scientific Company; Caspase -3/CPP32 Colorimetric Assay Kit was purchased from BioVision Company; Annexin V/PI double-staining flow type cell apoptosis detection kits were purchased from Bender Company; and anti-Phospho-(AMPKa, mTOR, p70S6K, 4E-BP1) antibodies were purchased from Cell Signaling Technology Company.
The influence of 2-DG on proliferation of the polycystic kidney epithelial cells was detected with a CCK-8 method: a DMEM complete medium containing 10% fetal calf serum (FBS) was prepared. The polycystic kidney epithelial cells were cultured in an incubator with 5% CO2 at 37° C. after being recovered, a solution was replaced every other day, the polycystic kidney epithelial cells were passaged every 2-3 days, and the cells were in a growing state of adhering to the wall. After trypsin enzyme digestion, cells were resuspended by using a complete medium, the concentration of a polycystic kidney epithelial cell suspension was regulated to be 3×10^7/L, the polycystic kidney epithelial cell suspension was inoculated to 96-well plate by […] per well for culture for 24 h, and the suspension was replaced by a culture medium containing 0.1% FBS for synchronization for 24 h.
(Tetrazolium assays rely on reduction of a dye to a coloured formazan, in cell work by metabolically active cells.)

Where [4] appears, read: 5 mg/kg orally, vs model group (FIG. 14 A).
[5] abbreviates: DSS mice, 5 mg/kg orally, vs model group (FIG. 12 A).
Setting [6] is: DSS mice, 5 mg/kg, vs model group (FIG. 12 C).

Structures are written as SMILES.

As a reminder, the inhibition is the percentage by which the read-out fell short of the control. For the compound `C[C@@H]1CC[C@]2(C(=O)O)CC[C@]3(C)C(=CC[C@@H]4[C@@]5(C)CC[C@H](O[C@@H]6OC[C@H](O)[C@H](O)[C@H]6O)C(C)(C)[C@@H]5CC[C@]43C)[C@@H]2[C@]1(C)O` [(XIII), ziyuglycoside II], the “content of the MPO in colon tissues” value in experiment [1] (5 mg/kg (FIG. 14 B)) is “significantly lowered”. Besides, the “drop scope of weight loss” value in experiment [1] (5 mg/kg orally, 7 days, vs model group (FIG. 13 A)) was “obviously lower than that of the model group”. For the same compound, the colon lengths entry in experiment [1] (5 mg/kg orally, day 8, vs model group (FIG. 13 B)) is “significantly larger than those of the model group”. Also, in experiment [1] (setting [4]), the “expression level of inflammatory factor IL-1 in colon tissue (ELISA)” value is given as “significantly lower than those of the model group” and the “expression level of inflammatory factor TNF- in colon tissue (ELISA)” value is “significantly lower than those of the model group”. In experiment [1], the “colon length of the treatment group compared with the control group” value was “nearly no difference”, the “expression level of inflammatory factor IL-1β” value is recorded as “significantly lower than those of the model group” and the “expression level of inflammatory factor TNF-α” value was “significantly lower than those of the model group”. Moreover, in experiment [2] (DSS mice, 5 mg/kg (FIG. 12 B)), the “content of the ROS in colon tissues” value was “significantly lowered”. Further, in experiment [2] (DSS mice, 5 mg/kg orally (FIG. 11)), the “colon histopathology (HE staining)” value is listed as “infiltration of the inflammatory cells is reduced”. Further, in experiment [2] (DSS mice, 5 mg/kg orally, day 11, vs model group (FIG. 10 B)), the colon lengths result is “significantly larger than those of the model group”. The “DAI scores (disease activity index)” value in experiment [2] (DSS mice, 5 mg/kg orally, vs model group (FIG. 10 A)) is reported as “obviously lower than that of the model group”. In experiment [2] (setting [5]), the “expression level of inflammatory factor IL-1 in colon tissue (ELISA)” value is listed as “significantly lower than those of the model group” and the “expression level of inflammatory factor TNF-α in colon tissue (ELISA)” value is “significantly lower than those of the model group”. In addition, in experiment [2] (setting [6]), the “expression level of Claudin-1 in colon (qPCR)” value is “significantly increased”, the “expression level of Occludin in colon (qPCR)” value is reported as “significantly increased” and the “expression level of ZO-1 in colon (qPCR)” value is listed as “significantly increased”. The “DAI scores of the treatment group” value in experiment [2] is listed as “obviously lower than those of the model group”. Besides, the inhibition at 10 µM in experiment [3] (polycystic kidney epithelial cells, 10 μM, CCK-8, n = 6, read-out: Inhibition rate (%)) turned out to be 72.1 ± 2%.

Turning to `CC1(C)CC[C@]2(C(=O)O[C@@H]3O[C@H](CO[C@@H]4O[C@H](CO)[C@@H](O)[C@H](O)[C@H]4O)[C@@H](O)[C@H](O)[C@H]3O)CC[C@]3(C)C(=CC[C@@H]4[C@@]5(C)CC[C@H](O[C@@H]6OC[C@H](O)[C@H](O)[C@H]6O)[C@@](C)(CO)[C@@H]5CC[C@]43C)[C@@H]2C1` [(II), asperosaponin VI], in experiment [1], the “colon length of the treatment group compared with the control group” value is “nearly no difference”, the “expression level of inflammatory factor IL-1β” value is reported as “significantly lower than those of the model group” and the “expression level of inflammatory factor TNF-α” value is on record as “significantly lower than those of the model group”. Also, the “DAI scores of the treatment group” value in experiment [2] is “obviously lower than those of the model group”. Moreover, the IC50 in experiment [3] (WT9-12 cells, CCK-8 (FIG. 15), read-out: median inhibitory concentration (IC50), proliferation of the polycystic kidney epithelial cells) was 3.2 µM.
